From US11053230B2, “3-hydroxy-imidazolidin-4-one compounds as inhibitors of indoleamine 2,3-dioxygenase” (Netherlands Translational Research Center B.V., priority 2017, dated 2021)

Key:
influenza virus = conditions: influenza virus-infected mice; cited from earlier work
[1] = test system: IDO1 expressed in mouse tumor cells; conditions: pre-immunized mice; cited from earlier work
[2] = test system: melanoma and glioblastoma; conditions: mouse tumor models for melanoma and glioblastoma; cited from earlier work
Leishmania major = conditions: in vivo; cited from earlier work
lung carcinoma = conditions: syngeneic mouse lung carcinoma model and transgenic mouse model; cited from earlier work
melanoma = conditions: mouse model for melanoma; cited from earlier work
colon cancer = conditions: mouse model for colon cancer; cited from earlier work
[3] = molecular target: tryptophan 2,3-dioxygenase (TDO) (Homo sapiens, UniProt P48775); conditions: biochemical assays; cited from earlier work
[4] = randomized, open-label, phase 2, ovarian cancer patients; cited from earlier work
plasma kynurenine levels = conditions: phase 1, advanced solid malignancies, all doses; cited from earlier work
IDO1 = molecular target: T1, IDO1 (Homo sapiens, UniProt P14902); experiment: Biochemical IDO1 assay (NFK GreenScreen); conditions: for IC50: NFK GreenScreen, 25 nM IDO1, 100 μM L-tryptophan, read-out: IC50, inhibitory potency on IDO1
T1 construct: Recombinant full-length IDO1 (Seegers, N., et al.) and all other assay components were diluted in IDO1 reaction buffer; made in house
In short: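 Recombinant full-length IDO1 in 50 mM NaH2PO4 pH 7.0 with 0.05% Tween-20 and 1% glycerol converted 100 μM L-tryptophan (final) over 60 min at room temperature with compound, 0.3% DMSO.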

T1 sequence (P14902 whole entry): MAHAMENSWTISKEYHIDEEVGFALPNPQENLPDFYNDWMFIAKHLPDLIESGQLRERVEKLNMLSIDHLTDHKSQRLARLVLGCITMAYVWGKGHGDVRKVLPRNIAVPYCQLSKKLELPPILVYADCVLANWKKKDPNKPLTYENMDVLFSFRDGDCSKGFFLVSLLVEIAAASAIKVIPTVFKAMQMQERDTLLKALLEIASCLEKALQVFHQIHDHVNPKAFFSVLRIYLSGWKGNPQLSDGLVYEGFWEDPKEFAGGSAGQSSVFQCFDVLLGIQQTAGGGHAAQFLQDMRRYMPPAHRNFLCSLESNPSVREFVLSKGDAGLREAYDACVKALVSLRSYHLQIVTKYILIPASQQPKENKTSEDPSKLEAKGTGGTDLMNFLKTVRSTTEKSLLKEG
Sequence of tryptophan 2,3-dioxygenase (TDO) (P48775 whole entry, species assumed): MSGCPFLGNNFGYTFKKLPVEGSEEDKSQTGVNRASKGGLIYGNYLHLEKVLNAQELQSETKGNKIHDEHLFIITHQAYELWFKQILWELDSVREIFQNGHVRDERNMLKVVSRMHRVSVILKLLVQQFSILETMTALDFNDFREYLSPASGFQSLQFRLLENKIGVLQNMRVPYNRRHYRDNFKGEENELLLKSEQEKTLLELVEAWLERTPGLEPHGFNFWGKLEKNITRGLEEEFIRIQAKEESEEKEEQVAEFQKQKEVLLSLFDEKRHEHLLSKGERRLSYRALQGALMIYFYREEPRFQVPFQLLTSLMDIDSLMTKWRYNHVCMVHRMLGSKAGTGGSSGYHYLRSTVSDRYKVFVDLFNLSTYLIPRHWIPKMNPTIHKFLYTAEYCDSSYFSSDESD

In the case of `Cn1cc(C[C@H](N)C(=O)O)c2ccccc21` [Example 1-MT, 1-methyl-L-tryptophan], the “T cell response against the virus” value (influenza virus) is given as “enhanced T cell response against the virus”, the “reversal of IDO1-mediated prevention of tumor cell rejection” value [1] is given as “this effect could be reverted” and the “efficacy of PD-1 and CTLA4 antibodies in combination” value [2] is given as “increased the efficacy of antibodies”. The parasite burden (Leishmania major) was “reduced the parasite burden” and the “efficacy of a cancer vaccine in combination” value (lung carcinoma) was “increased the efficacy of a cancer vaccine”.

For `Nc1nonc1C(=NO)Nc1ccc(F)c(Cl)c1` [compound 51, 4-amino-N-(3-chloro-4-fluorophenyl)-N′-hydroxy-1,2,5-oxadiazole-3-carboximidamide], the tumor growth (melanoma) is listed as “reduction of tumor growth”, the tumor growth (colon cancer) is listed as “reduction of tumor growth” and the “inhibition of TDO activity” value [3] is listed as “inhibit the activity of tryptophan 2,3-dioxygenase (TDO)”.

For `NS(=O)(=O)NCCNc1nonc1C(=NO)Nc1ccc(F)c(Br)c1` [epacadostat], the tumor growth (colon cancer) is given as “further reduction of tumor growth”, the tolerability [4] is given as “generally well tolerated” and the plasma kynurenine levels (plasma kynurenine levels) is given as “significant dose-dependent reductions”.

For `O=C1CN(C(=O)c2c(F)cccc2F)C(c2cc(Br)c(F)s2)N1O` (single isomer, unassigned) [Example 110a, 2-(4-Bromo-5-fluoro-2-thienyl)-1-(2,6-difluorobenzoyl)-3-hydroxy-imidazolidin-4-one], the “relative activity of the separated isomers” value (IDO1; stated in the synthesis examples, assay not named) was “most active isomer”.

With `O=C1CN(C(=O)c2c(F)cc(-c3cn[nH]c3)cc2F)C(c2cc(Br)cs2)N1O` (centres unmarked) [Example 96, 2-(4-bromo-2-thienyl)-1-[2,6-difluoro-4-(1H-pyrazol-4-yl)benzoyl]-3-hydroxy-imidazolidin-4-one] the IC50 (IDO1) was no more than 1000 nM.

In the case of `O=C1CN(C(=O)c2c(F)ccc(-c3ccc4ccccc4c3)c2F)C(c2cc(Br)cs2)N1O` (centres unmarked) [Example 135, 2-(4-Bromo-2-thienyl)-1-[2,6-difluoro-3-(2-naphthyl)benzoyl]-3-hydroxy-imidazolidin-4-one], the IC50 (IDO1) is reported as no more than 1000 nM.
